Experimental findings from patent publication US11155849B2, “IMP-producing microorganism and method of producing IMP using the same” (CJ CHEILJEDANG CORPORATION, priority 2017, dated 2021) are described below.

Experiment [1] concerns CJI0323. It is filed as cell-based, Corynebacterium stationis. As to conditions: strain CJI0323. The source says:
(§1) ATCC6872 (10^7 cells/mL to 10^8 cells/mL) was suspended in a phosphate buffer (pH 7.0) or in a citrate buffer (pH 5.5) in order to prepare an ATCC6872-derived IMP-producing strain, and then mutation was induced by UV treatment. The resultants were washed twice with a 0.85% saline solution, and then diluted and smeared on a medium containing an appropriate concentration of a substance to be resistant to a minimal medium containing 1.7% agar. Thereafter, colonies were obtained. Each colony was cultured in a nutrient medium and cultured in a seed medium for 24 hours. After 3 to 4 days of culturing in a fermentation medium, colonies with the highest amount of IMP accumulated in the culture medium were selected. In order to produce a high-concentration IMP producing-strain, and to provide adenine auxotrophy, guanine leakage, lysozyme susceptibility, 3,4-dihydroproline resistance, streptomycin resistance, azetidine carboxylic acid resistance, thiaproline resistance, azaserine resistance, sulfaguanidine resistance, norvaline resistance, and trimethoprim resistance, the procedures above were performed sequentially for each substance.
(§2) The compositions of the media are as follows: • Minimal medium: 2% glucose, 0.3% sodium sulfate, 0.1% […], 0.3% K2HPO4, 0.3% magnesium sulfate, calcium chloride (10 mg/L), iron sulfate (10 mg/L), zinc sulfate (1 mg/L), manganese chloride (3.6 mg/L), L-cysteine (20 mg/L), calcium pantothenate (10 mg/L), thiamine hydrochloride (5 mg/L), biotin (30 μg/L), adenine (20 mg/L), guanine (20 mg/L), pH 7.3 • Nutrient medium: 1% peptone, 1% meat juice, 0.25% sodium chloride, 1% yeast extract, 2% agar, pH 7.2 • Seed medium: 1% glucose, 1% peptone, 1% meat juice, 1% yeast extract, 0.25% sodium chloride, adenine (100 mg/L), guanine (100 mg/L), pH 7.5 • Fermentation medium: 0.1% sodium glutamate, 1% ammonium chloride, 1.2% magnesium sulfate, 0.01% calcium chloride, iron sulfate (20 mg/L), manganese sulfate (20 mg/L), zinc sulfate (20 mg/L), copper sulfate (5 mg/L), L-cysteine (23 mg/L), alanine (24 mg/L), nicotinic acid (8 mg/L), biotin (45 μg/L), thiamin hydrochloride (5 mg/L), adenine (30 mg/L), 1.9% phosphoric acid (85%), 2.55% glucose, 1.45% fructose

Experiment [2] relates to ATCC6872. The experiment can be described thus: Resistance/susceptibility of strain ATCC6872 to substances (minimal medium, 1.7% agar). It counts as cell-based, Corynebacterium stationis.
Description: as §1, §2

As to `O=C(O)C1C=CCN1` (stereo not drawn) [3,4-Dihydroproline], the figures for the resistance in experiment [1] and in experiment [2] were 3500 µg/mL and 1000 µg/mL, respectively.
The like results for `CCC[C@H](N)C(=O)O` [Norvaline] were, in that order, 2000 µg/mL and 200 µg/mL.
The matching figures for `COc1cc(Cc2cnc(N)nc2N)cc(OC)c1OC` [Trimethoprim]: 100 µg/mL and 20 µg/mL.
The matching figures for `[H]/N=C(/N)N[C@H]1[C@H](O)[C@@H](O)[C@H](O[C@@H]2O[C@@H](C)[C@](O)(C=O)[C@H]2O[C@@H]2O[C@@H](CO)[C@H](O)[C@@H](O)[C@@H]2NC)[C@@H](N/C(N)=N\[H])[C@@H]1O` [Streptomycin]: 2000 µg/mL and 500 µg/mL.
For `O=C(O)[C@@H]1CCN1` [Azetidine carboxylic acid], the resistance worked out at 30000 µg/mL in experiment [1] and 5000 µg/mL in experiment [2].
The like results for `[H]/N=C(/N)NS(=O)(=O)c1ccc(N)cc1` [Sulfaguanidine] were, in that order, 200 µg/mL and 50 µg/mL.
The matching figures for `[N-]=[N+]=CC(=O)OC[C@H](N)C(=O)O` [Azaserine]: 100 µg/mL and 25 µg/mL.
Take Lysozyme: the Lysozyme susceptibility came to 8 µg/mL in experiment [1] and 80 µg/mL in experiment [2].
On to `O=C(O)[C@@H]1CSCN1` [Thiaproline], for which the resistance in experiment [1] was 100 µg/mL; in experiment [2], 10 µg/mL.
